# Measurements: ChEMBL document CHEMBL1143288, “(-)-Cercosporamide derivatives as novel antihyperglycemic agents” (Bioorg Med Chem Lett, 2009)
# Active and inactive are the calls of the source. The calls are words filed in the database; no cut-off is given here.
# How the values were obtained:
# [1] = tested on: Mus musculus; assay: Antihyperglycemic activity in hyperglycemic KK/Ta mouse assessed as effect on food intake administered with diet in ratio of 0.03% for 1 week measured on day 7 relative to control; assay type: ADME, organism-based; settings: in vivo, po, 168 h
# [2] = tested on: Mus musculus; assay: Antihyperglycemic activity in hyperglycemic KK/Ta mouse assessed as change in plasma glucose level administered with diet in ratio of 0.03% administered for 1 week relative to control; assay type: functional
# [3] = tested on: Mus musculus; assay: Antihyperglycemic activity in hyperglycemic KK/Ta mouse assessed as effect on body weight administered with diet in ratio of 0.03% for 1 week measured on day 7 relative to control; assay type: ADME, organism-based; settings: in vivo, po, 168 h
# [4] = biological target: T1, Protein kinase C epsilon type (Homo sapiens) (UniProt Q02156); assay: Inhibition of PKCepsilon at 1 uM
# T1 sequence (whole entry): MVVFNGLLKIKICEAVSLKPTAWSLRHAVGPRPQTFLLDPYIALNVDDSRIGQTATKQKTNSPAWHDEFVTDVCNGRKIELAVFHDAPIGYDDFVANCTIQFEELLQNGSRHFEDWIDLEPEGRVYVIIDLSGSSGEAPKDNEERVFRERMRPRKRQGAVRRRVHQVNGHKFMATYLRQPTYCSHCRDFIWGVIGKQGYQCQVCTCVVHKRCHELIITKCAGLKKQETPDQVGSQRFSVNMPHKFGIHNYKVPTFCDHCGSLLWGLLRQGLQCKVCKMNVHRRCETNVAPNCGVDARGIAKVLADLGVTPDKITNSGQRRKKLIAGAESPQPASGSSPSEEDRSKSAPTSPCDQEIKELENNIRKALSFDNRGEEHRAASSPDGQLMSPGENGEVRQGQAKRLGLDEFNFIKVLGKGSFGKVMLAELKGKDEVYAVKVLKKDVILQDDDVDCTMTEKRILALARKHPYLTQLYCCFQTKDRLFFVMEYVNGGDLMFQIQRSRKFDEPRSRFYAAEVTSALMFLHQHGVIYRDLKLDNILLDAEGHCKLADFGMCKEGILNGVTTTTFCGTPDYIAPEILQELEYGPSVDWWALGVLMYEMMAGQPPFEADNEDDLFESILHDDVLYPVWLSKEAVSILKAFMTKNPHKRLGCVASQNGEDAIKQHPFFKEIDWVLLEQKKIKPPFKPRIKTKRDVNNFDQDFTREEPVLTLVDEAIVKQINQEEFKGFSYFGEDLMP
# [5] = tested on: Mus musculus; assay: Antihyperglycemic activity in hyperglycemic KK/Ta mouse assessed as effect on body weight administered with diet in ratio of 0.1% for 1 week measured on day 7 relative to control; assay type: ADME, organism-based; settings: in vivo, po, 168 h
# [6] = biological target: T2, Protein kinase C beta type (Homo sapiens, UniProt P05771); assay: Inhibition of PKCbeta2 at 1 uM
# Target sequence in this assay (P05771 2-671 limits assumed): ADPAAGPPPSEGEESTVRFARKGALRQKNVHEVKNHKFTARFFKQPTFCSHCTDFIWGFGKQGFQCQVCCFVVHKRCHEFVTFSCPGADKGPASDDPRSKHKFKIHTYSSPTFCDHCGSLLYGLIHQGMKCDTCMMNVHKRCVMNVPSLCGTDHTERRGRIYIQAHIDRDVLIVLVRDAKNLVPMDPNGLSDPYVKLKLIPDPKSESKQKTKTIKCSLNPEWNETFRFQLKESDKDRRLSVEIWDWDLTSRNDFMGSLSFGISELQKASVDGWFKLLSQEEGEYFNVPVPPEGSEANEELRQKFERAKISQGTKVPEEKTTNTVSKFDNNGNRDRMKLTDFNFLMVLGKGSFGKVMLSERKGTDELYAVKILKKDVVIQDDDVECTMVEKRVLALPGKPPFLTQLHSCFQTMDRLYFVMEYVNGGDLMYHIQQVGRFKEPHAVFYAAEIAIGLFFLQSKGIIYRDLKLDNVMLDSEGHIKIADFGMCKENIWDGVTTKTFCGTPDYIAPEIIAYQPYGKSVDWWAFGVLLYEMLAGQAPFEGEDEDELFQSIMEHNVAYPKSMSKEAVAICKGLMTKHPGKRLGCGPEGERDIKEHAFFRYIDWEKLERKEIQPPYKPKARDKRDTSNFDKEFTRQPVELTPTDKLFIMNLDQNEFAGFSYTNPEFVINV
# [7] = biological target: T3, Protein kinase C alpha type (Homo sapiens, UniProt P17252); assay: Inhibition of PKCalpha at 1 uM
# [8] = biological target: T4, Protein kinase C zeta type (Homo sapiens) (UniProt Q05513); assay: Inhibition of PKCzeta at 1 uM
# T4 sequence (whole entry): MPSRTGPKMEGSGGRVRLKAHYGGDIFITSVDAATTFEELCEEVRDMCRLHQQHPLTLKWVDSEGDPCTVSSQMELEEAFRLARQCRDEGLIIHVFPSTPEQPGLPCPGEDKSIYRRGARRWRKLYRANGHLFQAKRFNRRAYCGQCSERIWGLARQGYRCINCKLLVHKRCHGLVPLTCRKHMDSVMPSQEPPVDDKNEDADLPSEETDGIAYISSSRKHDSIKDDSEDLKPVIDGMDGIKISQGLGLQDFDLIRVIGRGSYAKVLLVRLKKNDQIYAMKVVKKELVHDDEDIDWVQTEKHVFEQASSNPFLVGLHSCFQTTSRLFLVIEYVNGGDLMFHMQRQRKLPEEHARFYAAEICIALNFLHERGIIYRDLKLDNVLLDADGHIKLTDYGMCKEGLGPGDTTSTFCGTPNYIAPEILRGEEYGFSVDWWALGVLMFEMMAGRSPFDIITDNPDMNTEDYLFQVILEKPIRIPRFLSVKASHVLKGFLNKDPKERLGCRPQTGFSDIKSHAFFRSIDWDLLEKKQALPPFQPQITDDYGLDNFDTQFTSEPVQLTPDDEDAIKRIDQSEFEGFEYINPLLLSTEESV
# [9] = biological target: Protein kinase C delta type (Homo sapiens) (UniProt Q05655); assay: Inhibition of PKCdelta at 1 uM
# [10] = tested on: Mus musculus; assay: Antihyperglycemic activity in hyperglycemic KK/Ta mouse assessed as change in plasma glucose level administered with diet in ratio of 0.1% for 1 week relative to control; assay type: functional
# [11] = biological target: Protein kinase C eta type (Homo sapiens) (UniProt P24723); assay: Inhibition of PKCeta at 1 uM
# [12] = tested on: Mus musculus; assay: Antihyperglycemic activity in hyperglycemic KK/Ta mouse assessed as effect on food intake administered with diet in ratio of 0.1% for 1 week measured on day 7 relative to control; assay type: ADME, organism-based; settings: in vivo, po, 168 h
# [13] = biological target: T2, Protein kinase C beta type; assay: Inhibition of PKCbeta1 at 1 uM
# Target sequence in this assay (P05771 2-671 limits assumed): as the sequence (P05771 2-671 limits assumed) above
# [14] = tested on: Mus musculus; assay: Antihyperglycemic activity in hyperglycemic KK/Ta mouse assessed as body weight administered with diet in ratio of 0.003% for 1 week measured on day 7; assay type: ADME, organism-based; settings: in vivo, po, 168 h
# [15] = tested on: Mus musculus; assay: Antihyperglycemic activity in hyperglycemic KK/Ta mouse assessed as plasma glucose level administered with diet in ratio of 0.03% for 1 week; assay type: functional
# [16] = biological target: T2, Protein kinase C beta type; assay: Inhibition of human PKCbeta by scintillation proximity assay
# Target sequence in this assay (P05771 whole entry): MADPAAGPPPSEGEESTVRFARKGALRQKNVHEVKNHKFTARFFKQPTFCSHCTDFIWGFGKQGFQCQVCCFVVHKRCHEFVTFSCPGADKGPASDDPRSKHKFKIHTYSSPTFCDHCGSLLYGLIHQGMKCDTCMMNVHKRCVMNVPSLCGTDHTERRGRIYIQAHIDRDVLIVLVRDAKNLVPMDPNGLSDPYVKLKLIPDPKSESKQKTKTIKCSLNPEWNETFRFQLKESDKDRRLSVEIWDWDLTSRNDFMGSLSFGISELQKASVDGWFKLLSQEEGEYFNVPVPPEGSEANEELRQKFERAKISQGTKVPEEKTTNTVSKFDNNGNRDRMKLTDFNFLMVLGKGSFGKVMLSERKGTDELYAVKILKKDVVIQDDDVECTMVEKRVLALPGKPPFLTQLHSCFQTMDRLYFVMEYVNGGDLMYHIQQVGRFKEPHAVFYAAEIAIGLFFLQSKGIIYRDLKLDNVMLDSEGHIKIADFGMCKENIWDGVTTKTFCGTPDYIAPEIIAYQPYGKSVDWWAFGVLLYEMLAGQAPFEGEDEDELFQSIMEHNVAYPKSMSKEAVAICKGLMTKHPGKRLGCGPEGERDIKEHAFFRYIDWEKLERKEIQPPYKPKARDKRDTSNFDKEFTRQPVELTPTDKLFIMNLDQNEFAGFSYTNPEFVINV
# [17] = tested on: Mus musculus; assay: Antihyperglycemic activity in hyperglycemic KK/Ta mouse assessed as plasma glucose level administered with diet in ratio of 0.003% for 1 week; assay type: functional
# [18] = tested on: Mus musculus; assay: Antihyperglycemic activity in hyperglycemic KK/Ta mouse assessed as food intake administered with diet in ratio of 0.03% for 1 week measured on day 7; assay type: ADME, organism-based; settings: in vivo, po, 168 h
# [19] = tested on: Mus musculus; assay: Antihyperglycemic activity in hyperglycemic KK/Ta mouse assessed as body weight administered with diet in ratio of 0.03% for 1 week measured on day 7; assay type: ADME, organism-based; settings: in vivo, po, 168 h
# [20] = tested on: Mus musculus; assay: Antihyperglycemic activity in hyperglycemic KK/Ta mouse assessed as food intake administered with diet in ratio of 0.1% for 1 week measured on day 7; assay type: ADME, organism-based; settings: in vivo, po, 168 h
# [21] = biological target: T3, Protein kinase C alpha type; assay: Inhibition of human PKCalpha by scintillation proximity assay
# [22] = tested on: Mus musculus; assay: Antihyperglycemic activity in hyperglycemic KK/Ta mouse assessed as food intake administered with diet in ratio of 0.003% for 1 week measured on day 7; assay type: ADME, organism-based; settings: in vivo, po, 168 h
# [23] = tested on: Mus musculus; assay: Antihyperglycemic activity in hyperglycemic KK/Ta mouse assessed as body weight administered with diet in ratio of 0.01% for 1 week measured on day 7; assay type: ADME, organism-based; settings: in vivo, po, 168 h
# [24] = tested on: Mus musculus; assay: Antihyperglycemic activity in hyperglycemic KK/Ta mouse assessed as plasma glucose level administered with diet in ratio of 0.01% for 1 week; assay type: functional
# [25] = tested on: Mus musculus; assay: Antihyperglycemic activity in hyperglycemic KK/Ta mouse assessed as body weight administered with diet in ratio of 0.1% for 1 week measured on day 7; assay type: ADME, organism-based; settings: in vivo, po, 168 h
# [26] = tested on: Mus musculus; assay: Antihyperglycemic activity in hyperglycemic KK/Ta mouse assessed as food intake administered with diet in ratio of 0.01% for 1 week measured on day 7; assay type: ADME, organism-based; settings: in vivo, po, 168 h
# [27] = biological target: T5, Protein kinase C-like 1 (Candida albicans, UniProt P43057); assay: Inhibition of Candida albicans Pkc1 expressed in insect Sf9 cells by scintillation proximity assay
# T5 sequence (P43057 whole entry): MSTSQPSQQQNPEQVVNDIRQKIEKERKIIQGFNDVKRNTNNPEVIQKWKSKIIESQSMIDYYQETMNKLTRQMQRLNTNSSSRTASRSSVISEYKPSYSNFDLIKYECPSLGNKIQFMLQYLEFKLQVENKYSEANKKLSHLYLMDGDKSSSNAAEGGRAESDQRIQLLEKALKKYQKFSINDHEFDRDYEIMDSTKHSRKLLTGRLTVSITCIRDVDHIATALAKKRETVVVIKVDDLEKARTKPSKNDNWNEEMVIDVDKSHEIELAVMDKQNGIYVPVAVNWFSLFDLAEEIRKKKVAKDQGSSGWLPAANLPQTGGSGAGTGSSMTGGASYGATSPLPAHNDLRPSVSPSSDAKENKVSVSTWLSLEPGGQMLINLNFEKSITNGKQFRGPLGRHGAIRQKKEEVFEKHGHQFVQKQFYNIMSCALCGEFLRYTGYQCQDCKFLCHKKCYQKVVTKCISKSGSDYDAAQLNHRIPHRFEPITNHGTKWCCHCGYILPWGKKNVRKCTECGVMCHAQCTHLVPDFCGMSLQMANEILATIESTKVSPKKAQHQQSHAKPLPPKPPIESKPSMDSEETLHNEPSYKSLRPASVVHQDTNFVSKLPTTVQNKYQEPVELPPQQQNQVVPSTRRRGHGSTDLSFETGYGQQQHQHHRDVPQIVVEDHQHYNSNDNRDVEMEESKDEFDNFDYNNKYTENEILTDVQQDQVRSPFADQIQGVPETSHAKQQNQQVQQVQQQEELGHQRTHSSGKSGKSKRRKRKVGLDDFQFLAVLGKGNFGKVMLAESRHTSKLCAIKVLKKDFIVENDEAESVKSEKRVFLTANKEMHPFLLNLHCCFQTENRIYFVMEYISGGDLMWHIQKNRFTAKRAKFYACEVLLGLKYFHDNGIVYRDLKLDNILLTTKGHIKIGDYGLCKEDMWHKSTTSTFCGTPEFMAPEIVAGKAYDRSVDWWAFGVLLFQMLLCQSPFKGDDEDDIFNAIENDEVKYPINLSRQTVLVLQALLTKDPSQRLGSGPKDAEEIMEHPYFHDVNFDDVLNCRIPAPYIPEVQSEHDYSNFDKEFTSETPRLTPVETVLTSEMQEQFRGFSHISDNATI
# [28] = biological target: Protein kinase C gamma type (Homo sapiens, UniProt P05129); assay: Inhibition of human PKCgamma by scintillation proximity assay
# [29] = tested on: Mus musculus; assay: Antihyperglycemic activity in hyperglycemic KK/Ta mouse assessed as plasma glucose level administered with diet in ratio of 0.1% for 1 week; assay type: functional
# Chain of Protein kinase C delta type (Homo sapiens) (Q05655 whole entry, looked up): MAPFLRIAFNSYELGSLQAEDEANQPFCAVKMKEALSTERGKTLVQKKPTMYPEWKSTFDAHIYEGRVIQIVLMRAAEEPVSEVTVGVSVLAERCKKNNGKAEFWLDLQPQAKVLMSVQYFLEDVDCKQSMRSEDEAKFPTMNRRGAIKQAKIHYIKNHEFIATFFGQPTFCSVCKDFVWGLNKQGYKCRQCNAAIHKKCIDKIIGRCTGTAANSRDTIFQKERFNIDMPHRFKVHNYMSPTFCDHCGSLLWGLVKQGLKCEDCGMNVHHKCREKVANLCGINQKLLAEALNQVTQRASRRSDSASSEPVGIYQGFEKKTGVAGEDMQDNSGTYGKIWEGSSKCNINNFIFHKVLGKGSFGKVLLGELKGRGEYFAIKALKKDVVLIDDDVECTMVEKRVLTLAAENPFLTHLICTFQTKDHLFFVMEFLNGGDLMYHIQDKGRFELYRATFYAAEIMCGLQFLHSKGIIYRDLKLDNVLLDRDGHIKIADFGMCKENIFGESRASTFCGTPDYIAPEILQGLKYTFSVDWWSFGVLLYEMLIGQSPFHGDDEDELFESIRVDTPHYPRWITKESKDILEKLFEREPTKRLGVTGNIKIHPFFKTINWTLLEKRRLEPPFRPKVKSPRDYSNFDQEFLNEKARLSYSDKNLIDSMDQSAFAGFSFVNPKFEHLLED
# Chain of Protein kinase C eta type (Homo sapiens) (P24723 whole entry): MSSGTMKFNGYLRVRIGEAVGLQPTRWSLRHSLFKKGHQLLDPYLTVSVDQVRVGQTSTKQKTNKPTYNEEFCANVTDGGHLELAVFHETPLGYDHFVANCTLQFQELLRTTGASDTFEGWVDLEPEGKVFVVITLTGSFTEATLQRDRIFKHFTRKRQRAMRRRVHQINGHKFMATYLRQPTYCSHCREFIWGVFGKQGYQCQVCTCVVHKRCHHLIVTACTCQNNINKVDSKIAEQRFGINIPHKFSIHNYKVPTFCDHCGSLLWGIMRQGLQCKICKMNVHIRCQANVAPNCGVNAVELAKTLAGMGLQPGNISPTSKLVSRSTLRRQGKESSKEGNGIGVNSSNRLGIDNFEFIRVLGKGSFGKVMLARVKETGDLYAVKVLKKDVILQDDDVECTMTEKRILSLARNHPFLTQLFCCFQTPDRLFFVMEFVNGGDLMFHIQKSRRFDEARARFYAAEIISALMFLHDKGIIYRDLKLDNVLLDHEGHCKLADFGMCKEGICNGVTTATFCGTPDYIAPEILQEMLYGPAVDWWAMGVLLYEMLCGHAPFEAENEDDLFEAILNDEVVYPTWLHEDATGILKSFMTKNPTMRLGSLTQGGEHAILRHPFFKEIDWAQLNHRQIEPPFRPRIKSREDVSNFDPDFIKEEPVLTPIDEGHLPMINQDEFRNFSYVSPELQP
SMILES,Activity [1] [%],Activity [2] [%],Activity [3] [%],Activity [5] [%],Activity [10] [%],Activity [12] [%],also measured
CC(=O)C1=C(O)C=C2Oc3c4c(cc(O)c3[C@]2(C)C1=O)OC(C)(c1ccccc1)NC4=O (stereo partly specified),94,54,100,,,,
CC(=O)C1=C(O)C=C2Oc3c4c(cc(O)c3[C@]2(C)C1=O)OC(C)(C)NC4=O,92,35,102,102,56,78,Activity [4]: inactive; Activity [6]: inactive; Activity [7]: inactive; Activity [8]: inactive; Activity [9]: inactive; Activity [11]: inactive; Activity [13]: inactive
CC(=O)C1=C(O)CC2Oc3c(C(N)=O)c(O)cc(O)c3[C@]2(C)C1=O (stereo partly specified),,,,101,29,111,
CC(=O)C1=C(O)C=C2Oc3c(C(N)=O)c(O)cc(O)c3[C@]2(C)C1=O,,,,83,71,34,Activity [14]: 48.4 g; Activity [15]: 272 mg/dL; IC50 [16]: 350 nM; Activity [17]: 571 mg/dL; Activity [18]: 3.65 g/day; Activity [19]: 45.9 g; Activity [20]: 1.89 g/day; IC50 [21]: 1020 nM; Activity [22]: 5.78 g/day; Activity [23]: 47 g; Activity [24]: 408 mg/dL; Activity [25]: 39.1 g; Activity [26]: 4.81 g/day; IC50 [27]: 44 nM; IC50 [28]: 5800 nM; Activity [29]: 176 mg/dL
CC(=O)C1=C(O)C=C2Oc3c4c(cc(O)c3[C@]2(C)C1=O)OC1(CCCCC1)NC4=O,104,38,104,,,,
CC(=O)C1=C(O)C=C2Oc3c4c(cc(O)c3[C@]2(C)C1=O)OC1(CCCC1)NC4=O,106,7,102,,,,
COc1cc(OC)c2c(c1C(=O)N(C)C)OC1=CC(O)=C(C(C)=O)C(=O)[C@]12C,,,,96,14,95,
COc1cc(OC)c2c(c1C(N)=O)OC1=CC(O)=C(C(C)=O)C(=O)[C@]12C,,,,100,26,92,
CC1=NOC2C=C3Oc4c(C(N)=O)c(O)cc(O)c4[C@]3(C)C(=O)C12 (stereo partly specified),,,,102,1,126,
COc1cc(O)c2c(c1C(N)=O)OC1=CC(O)=C(C(C)=O)C(=O)[C@]12C,,,,83,70,37,
